Laboratory results reported in patent US10316313B2, “Mesoporous catalysts of magnetic nanoparticles and free-radical-producing enzymes, and methods of use” (Cornell University, priority 2011, dated 2019).
Entries after “also recorded” stand apart in the source; their conditions may differ.

What was measured:
[1] = biological target: T1, Horseradish Peroxidase (HRP, E.C. 1.11.1.7, type VI-A) entrapped in M25 magnetite nanoparticle clusters (M25-BNC) (Armoracia rusticana, UniProt P00433); experiment: Phenol/AAP assay, H2O2 substrate inhibition model, M25-BNC; assay type: biochemical
T1 construct: purchased
T1 sequence (P00433 31-338 limits assumed): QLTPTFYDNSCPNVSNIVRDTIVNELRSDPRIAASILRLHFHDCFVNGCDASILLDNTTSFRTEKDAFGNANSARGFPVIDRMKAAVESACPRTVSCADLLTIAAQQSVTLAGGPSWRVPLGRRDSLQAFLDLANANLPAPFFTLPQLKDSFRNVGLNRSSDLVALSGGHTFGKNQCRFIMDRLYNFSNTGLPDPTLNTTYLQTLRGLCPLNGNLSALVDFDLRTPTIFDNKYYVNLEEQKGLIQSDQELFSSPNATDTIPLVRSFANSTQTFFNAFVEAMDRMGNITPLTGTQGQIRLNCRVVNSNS
Source text: (§1) The enzymes used in this study were Horseradish Peroxidase (HRP, E.C. 1.11.1.7, type VI-A), Lignin Peroxidase (LiP, E.C. 1.11.1.14), Manganese Peroxidase (MnP; E.C. 1.11.1.13) Versatile Peroxidase (syn. hybrid peroxidase, manganese-lignin peroxidase: VeP EC 1.11.1.16), and laccase. All enzymes used herein were obtained from commercial sources. […] High activity forms were obtained by further purification by FPLC (AKTA Explorer, GE Bioscience) using an anionic exchange column (Resource Q, GE Bioscience). Laccase was used without further purification. Protein signal was monitored at 280 nm and the heme signal at 405 nm. For each enzyme, the fractions with a RZ above 1 were pulled together, concentrated and aliquoted. Phenol, homovanillic acid, veratryl alcohol, methoxylphenol, 4-aminoantipyrine (AAP), glucose (the foregoing being at 98% purity), sodium phosphate buffer (PBS) of pH 7.4 and 67 mM, magnetite microsphere powder, manganese sulfate, hydrogen peroxide, FeCl3.6H2O, and FeCl2.4H2O, O-phosphoethydiamine, gold tetrachlorohydrate, and malonate and tartrate disodium salts were obtained from commercial sources.
(§2) Magnetite nanoparticles were synthesized by co-precipitation of Fe^2+ and Fe^3+ under alkaline conditions in a bubbling nitrogen atmosphere at 25° C. (M25) or 90° C. (M90). An acidic solution (25 ml) of the iron salts (2 g of FeCl2.4H2O and 5.2 g of FeCl3.6H2O) was added dropwise to NaOH (250 ml, 1.5 M) under constant stirring. Non-oxidizing conditions were achieved by bubbling all solutions with nitrogen for 15 minutes prior to reaction. The instantaneous black precipitation of Fe3O4 was captured with a neodymium magnet, washed, and neutralized, and kept in distilled water until further use.
(§3) All BNCs were formed with either M90 or M25 magnetite nanoparticles, gold-coated or not. The BNCs were formed with either Horseradish peroxidase, Lignin Peroxidase, Manganese Peroxidase or Versatile Peroxidase. Typical BNC synthesis required the MNPs to be initially monodispersed (i.e., individualized and non-aggregated MNPs). MNPs were sonicated in an ultrasonic bath for 20 minutes at room temperature and used immediately to form the BNCs. In preliminary experiments, the effects of buffer composition, buffer strength, and incubation time were investigated to measure their influence on the formation of the BNCs and the activity of the enzymes. […]
(§4) The peroxidase activity of native HRP and BNC was monitored using the chromogenic phenol/AAP assay that generates phenoxy radicals that readily react with […] to form the pink-colored quinoneimine dye. An automated plate-reader (Synergy 4, Biotek) with injection capabilities and temperature-controlled chamber was used to record the absorbance of the solution at 510 nm in 96-well plates (4 replicates) for 30 minutes. […]

[2] = biological target: T2, Horseradish Peroxidase (HRP, E.C. 1.11.1.7, type VI-A) entrapped in M90 magnetite nanoparticle clusters (M90-BNC) (Armoracia rusticana, UniProt P00433); experiment: Phenol/AAP assay, H2O2 substrate inhibition model, M90-BNC; assay type: biochemical
T2 construct: purchased
T2 sequence (P00433 31-338 limits assumed): T1 sequence (P00433 31-338 limits assumed)
Source text: as §1, §2, §3, §4

[3] = compared to the free enzyme at the same concentration

OO [H2O2, hydrogen peroxide]
Ki (H2O2 substrate inhibition constant) ([1]; compared to free HRP): in the same range than the free HRP; also recorded: in the same range, if not lower, than for the free enzymes | Km ([1]; compared to free HRP): higher Km; also recorded: increased in the case of BNCs formed with M25 | Vmax [1, 3]: two to three times greater than the free enzyme; also recorded: increased in the case of BNCs formed with M25 compared to the Vmax of the free enzymes | kcat [1, 3]: two to three times greater than the free enzyme; also recorded: drastically increased in the case of BNCs formed with M25 compared to the free enzyme | Vmax ([2]; compared to free HRP): similar; also recorded: No difference in Vmax | kcat ([2]; compared to free HRP): also increased for lower concentrations of enzymes | Ki (H2O2 substrate inhibition constant) ([2]; in words, compared to free HRP): drastically increased | Ki (H2O2 substrate inhibition constant), times greater than the free HRP ([2]; ratio to free HRP): about 10 times
